Laboratory results reported in the supplement of paper PMC11451515.

Test system: NOMO1
Assay: cell viability relative to DMSO control; higher = less cytotoxic
Details: 48 h
Method in brief: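 Viability is expressed as a percentage of DMSO wells within each plate, and cell-free wells serve as background. Seeding densities in the 1536-well plates (5 μl) were 500 cells/well for NOMO1 or SEM leukemia cells and 1000 cells/well for P12-Ichikawa. Each line was adapted for at least four passages in each medium. Library compounds in DMSO were pin-dosed at 47 μM to 0.79 nM (11 points, threefold), and CellTiter-Glo One luminescence was read after 48 h at 37°C.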

[1] = HPLM + 10% dialyzed FBS, 0.000781 µM
[2] = HPLM + 10% dialyzed FBS, 0.00234 µM
[3] = HPLM + 10% dialyzed FBS, 0.00702 µM
[4] = HPLM + 10% dialyzed FBS, 0.0211 µM
[5] = HPLM + 10% dialyzed FBS, 0.0632 µM
[6] = HPLM + 10% dialyzed FBS, 0.19 µM
[7] = HPLM + 10% dialyzed FBS, 0.569 µM
[8] = HPLM + 10% dialyzed FBS, 1.71 µM
[9] = HPLM + 10% dialyzed FBS, 5.12 µM
[10] = HPLM + 10% dialyzed FBS, 15.4 µM
[11] = HPLM + 10% dialyzed FBS, 46.1 µM
[12] = RPMI 5 mM glucose + 10% FBS, 0.000781 µM
[13] = RPMI 5 mM glucose + 10% FBS, 0.00234 µM
[14] = RPMI 5 mM glucose + 10% FBS, 0.00702 µM
[15] = RPMI 5 mM glucose + 10% FBS, 0.0211 µM
[16] = RPMI 5 mM glucose + 10% FBS, 0.0632 µM
[17] = RPMI 5 mM glucose + 10% FBS, 0.19 µM
[18] = RPMI 5 mM glucose + 10% FBS, 0.569 µM
[19] = RPMI 5 mM glucose + 10% FBS, 1.71 µM
[20] = RPMI 5 mM glucose + 10% FBS, 5.12 µM
[21] = RPMI 5 mM glucose + 10% FBS, 15.4 µM
[22] = RPMI 5 mM glucose + 10% FBS, 46.1 µM
[23] = RPMI 5 mM glucose + 10% dialyzed FBS, 0.000781 µM
[24] = RPMI 5 mM glucose + 10% dialyzed FBS, 0.00234 µM
[25] = RPMI 5 mM glucose + 10% dialyzed FBS, 0.00702 µM
[26] = RPMI 5 mM glucose + 10% dialyzed FBS, 0.0211 µM
[27] = RPMI 5 mM glucose + 10% dialyzed FBS, 0.0632 µM
[28] = RPMI 5 mM glucose + 10% dialyzed FBS, 0.19 µM
[29] = RPMI 5 mM glucose + 10% dialyzed FBS, 0.569 µM
[30] = RPMI 5 mM glucose + 10% dialyzed FBS, 1.71 µM
[31] = RPMI 5 mM glucose + 10% dialyzed FBS, 5.12 µM
[32] = RPMI 5 mM glucose + 10% dialyzed FBS, 15.4 µM
[33] = RPMI 5 mM glucose + 10% dialyzed FBS, 46.1 µM

Row | SMILES | cell viability [1] | cell viability [2] | cell viability [3] | cell viability [4] | cell viability [5] | cell viability [6] | cell viability [7] | cell viability [8] | cell viability [9] | cell viability [10] | cell viability [11] | cell viability [12] | cell viability [13] | cell viability [14] | cell viability [15] | cell viability [16] | cell viability [17] | cell viability [18] | cell viability [19] | cell viability [20] | cell viability [21] | cell viability [22] | cell viability [23] | cell viability [24] | cell viability [25] | cell viability [26] | cell viability [27] | cell viability [28] | cell viability [29] | cell viability [30] | cell viability [31] | cell viability [32] | cell viability [33]
1 | c1cc(OCCN2CCCCC2)cc(-c2n[nH]c3ccc(-c4nc[nH]n4)cc23)c1 | 116% | 120% | 129% | 127% | 137% | 103% | 127% | 127% | 114% | 122% | 100% | 115% | 115% | 113% | 105% | 103% | 122% | 112% | 111% | 103% | 104% | 109% | 99.5% | 97.1% | 101% | 108% | 101% | 109% | 114% | 105% | 111% | 101% | 109%
2 | CCCCc1oc2ccc(NS(C)(=O)=O)cc2c1C(=O)c1ccc(OCCCN(CCCC)CCCC)cc1 | 109% | 107% | 100% | 105% | 96.7% | 113% | 114% | 64.7% | 34% | 27.5% | 14.4% | 86.9% | 98% | 103% | 98.3% | 97.1% | 93.4% | 103% | 28.8% | 17.8% | 16.4% | 9.17% | 83.2% | 95.5% | 102% | 102% | 93.7% | 106% | 103% | 66% | 28.3% | 20.6% | 12.5%
3 | COc1cc2ncnc(Nc3ccc(F)c(Cl)c3)c2cc1OCCCN1CCOCC1 | 127% | 115% | 112% | 95.3% | 109% | 117% | 108% | 96.8% | 93.7% | 64% | 29.2% | 111% | 114% | 109% | 106% | 102% | 116% | 104% | 100% | 101% | 87.7% | 86.2% | 121% | 112% | 122% | 112% | 115% | 113% | 114% | 109% | 93.4% | 97.5% | 75.1%
4 | CC1(C)O[C@H]2CC(=O)OC[C@]23[C@H]2CC[C@@]4(C)[C@H](c5ccoc5)OC(=O)[C@H]5O[C@]54[C@]2(C)C(=O)C[C@@H]13 | 114% | 91.3% | 98.8% | 84.5% | 99.4% | 110% | 99.2% | 115% | 114% | 103% | 87.7% | 96.8% | 89.8% | 93.7% | 96.1% | 101% | 105% | 98.9% | 108% | 98.4% | 103% | 97.8% | 87.2% | 95.7% | 83% | 101% | 102% | 98.5% | 96.7% | 110% | 99.1% | 109% | 98%
5 | O=C(C1CCCCC1)N1CC(=O)N2CCc3ccccc3C2C1 (stereo not given) | 106% | 147% | 125% | 125% | 126% | 130% | 140% | 110% | 108% | 107% | 114% |  |  |  |  |  |  |  |  |  |  |  |  |  |  |  |  |  |  |  |  |  | 
6 | O=C(c1ccc(F)cc1)C1CCN(CCn2c(=O)[nH]c3ccccc3c2=O)CC1 | 122% | 117% | 111% | 128% | 136% | 114% | 127% | 120% | 143% | 111% | 104% | 107% | 118% | 117% | 118% | 105% | 111% | 127% | 106% | 105% | 111% | 98.8% |  |  |  |  |  |  |  |  |  |  | 
7 | CN[C@@H](C)C(=O)N[C@H]1CCCC[C@H]2CC[C@@H](C(=O)N[C@@H](c3ccccc3)c3cn(CCCCc4ccc(CCCCn5cc([C@@H](NC(=O)[C@@H]6CC[C@@H]7CCCC[C@H](NC(=O)[C@H](C)NC)C(=O)N76)c6ccccc6)nn5)cc4)nn3)N2C1=O | 82.8% | 79.3% | 56% | 61% | 42.3% | 54.4% | 50.6% | 47.9% | 48% | 27.5% | 33.4% | 85.6% | 82.4% | 80.8% | 87.9% | 48.4% | 61.5% | 74% | 70.8% | 51.8% | 51.2% | 57.1% | 75.9% | 81.6% | 84.8% | 64.9% | 65.5% | 72.2% | 53.6% | 52.2% | 42.6% | 54.7% | 34.2%
8 | O=C1c2cccc(O)c2C(=O)c2c(O)cc(CO)cc21 | 89.5% | 109% | 87.5% | 89.8% | 98.5% | 81.8% | 82.5% | 86.5% | 81.9% | 75.8% | 76.8% | 96.8% | 92.5% | 92.1% | 91.9% | 87.1% | 88.3% | 90.6% | 92.8% | 81.9% | 85.5% | 78.9% | 97.8% | 106% | 104% | 95.4% | 100% | 93.1% | 102% | 79.7% | 85.2% | 94.5% | 94.3%
9 | Clc1ccc(COC(Cn2ccnc2)c2ccc(Cl)cc2Cl)cc1 (stereo not given) | 118% | 119% | 105% | 115% | 111% | 104% | 111% | 127% | 132% | 118% | 93.2% | 107% | 104% | 110% | 123% | 111% | 109% | 121% | 117% | 119% | 110% | 102% | 114% | 112% | 103% | 121% | 115% | 125% | 121% | 120% | 114% | 121% | 83.6%
10 | C[C@@H]1CN(CC(=O)N2CC(C)(C)c3ncc(Cc4ccc(F)cc4)cc32)[C@@H](CN2CCOC[C@H]2C)CN1 | 100% | 117% | 145% | 112% | 129% | 114% | 112% | 103% | 109% | 84% | 46.4% | 96.9% | 120% | 121% | 111% | 117% | 121% | 102% | 109% | 103% | 95.3% | 91.4% | 95.4% | 119% | 117% | 119% | 111% | 114% | 111% | 106% | 105% | 98.2% | 69.3%
11 | c1ccc2c(-c3cnn4cc(-c5ccc(N6CCNCC6)cc5)cnc34)ccnc2c1 | 79.8% | 77.8% | 134% | 166% | 144% | 143% | 146% | 121% | 114% | 111% | 90.3% | 93.8% | 91.3% | 139% | 133% | 132% | 137% | 128% | 126% | 122% | 120% | 87.7% | 83.9% | 72% | 122% | 120% | 173% | 150% | 141% | 144% | 146% | 117% | 77.8%
12 | N/C(=N\C(=O)c1nc(Cl)c(N)nc1N)NCc1ccccc1 | 81% | 99.5% | 90.7% | 118% | 108% | 108% | 109% | 109% | 97.6% | 76.2% | 36.9% | 80.5% | 92.8% | 83.7% | 88.3% | 93.5% | 89% | 99% | 87.8% | 92.8% | 72.4% | 28.5% | 83.1% | 97% | 96.2% | 90.8% | 104% | 100% | 107% | 111% | 87.4% | 84.2% | 49.1%
13 | CN1C(=O)COc2c(C(=O)NC3CN4CCC3CC4)cc(Cl)cc21 (stereo not given) | 68.8% | 121% | 112% | 107% | 105% | 104% | 119% | 109% | 104% | 111% | 108% | 90.2% | 106% | 94.2% | 88.8% | 110% | 109% | 99% | 92.1% | 90.6% | 105% | 85.6% | 104% | 102% | 106% | 93.2% | 97.1% | 91.6% | 97.6% | 89.7% | 90.5% | 85.8% | 97.7%
14 | Cc1cnc(Nc2ccc(OCCN3CCCC3)cc2)nc1Nc1cccc([S+](=O)([O-])NC(C)(C)C)c1 | 78.8% | 102% | 109% | 116% | 117% | 126% | 102% | 114% | 110% | 100% | 84.3% | 105% | 107% | 104% | 90.3% | 108% | 110% | 98% | 97.3% | 114% | 92.7% | 102% | 87.5% | 106% | 99.6% | 105% | 100% | 102% | 103% | 102% | 103% | 102% | 100%
15 | CC1(C)OC/2=C(\[C@H](NCC3=CC=CC=C3)[C@@H]1O)C(=O)C4=CC=CC=C4C2=O | 112% | 36.5% | 117% | 101% | 104% | 96.1% | 108% | 82.5% | 37.6% | 22.4% | 7.72% | 89.7% | 99.6% | 89.2% | 95.5% | 86.7% | 93.8% | 95% | 98.2% | 37.4% | 17.5% | 5.95% | 86.7% | 90.2% | 88.1% | 89.3% | 98.3% | 92.6% | 97.6% | 86.9% | 60.2% | 26.7% | 5.24%
16 | Cn1c(=O)c2c(ncn2CC(O)CO)n(C)c1=O (stereo not given) | 106% | 109% | 114% | 119% | 121% | 136% | 103% | 120% | 130% | 103% | 111% | 119% | 98% | 100% | 109% | 104% | 108% | 103% | 103% | 103% | 95.3% | 58.2% | 116% | 116% | 115% | 128% | 118% | 115% | 128% | 120% | 111% | 99.4% | 62.7%
